# Experimental data as given in patent publication US20140120184A1, “ARGON-BASED INHALABLE GASEOUS MEDICINAL PRODUCT FOR THE TREATMENT OF NEUROINTOXICATIONS” (Air Liquide Sante (International), priority 2003, published 2014).
# Legend:
# Assay type in all cases: in vivo, Sprague-Dawley rats
# [1] = test system: sensitization to D-amphetamine; experiment: Locomotor activity on D7 after D-amphetamine challenge (photoelectric cell actimetry) in the D-amphetamine sensitization protocol; details: rats given D-amphetamine 1 mg/kg i.p. D1-D3, each injection followed by 3 h gas exposure, versus sensitized rats treated with air
# Protocol: (§1) To do this, adult male Sprague-Dawley rats that weighed approximately 220 g when they arrived in the laboratory were used. Throughout the study, the animals were placed under standard animalhouse conditions, in groups of 8, so as to avoid the appearance of a stress reaction subsequent to isolation. They had water and food ad libitum.
# (§2) For 3 consecutive days (from D1 to D3), 8 groups of animals (8 rats per group) were administered intraperitoneally (i.p.) either D-amphetamine (amph: 1 mg/ml/kg), or a saline solution (saline: 1 ml/kg) for the control animals. […]
# (§3) The locomotor activity and the righting activity of the animals were evaluated at D6, after an i.p. injection of a saline solution (1 ml/kg) in order to determine the actual effects of the treatments administered with the various gases and mixtures of gas, and on D7 after an i.p. administration of D-amphetamine (1 mg/ml/kg) in order to evaluate the effects of the gases and mixtures of gas on sensitization to D-amphetamine. […]
# (§4) The results obtained (see FIGS. 1 and 2) are expressed as the mean±the standard error of the mean. […]
# [2] = test system: sensitization to D-amphetamine; experiment: Stereotypic righting activity on D7 after D-amphetamine challenge (photoelectric cell actimetry) in the D-amphetamine sensitization protocol; details: rats given D-amphetamine 1 mg/kg i.p. D1-D3, each injection followed by 3 h gas exposure, versus sensitized rats treated with air
# Protocol: as §1, §2, §3, §4
# [3] = Overall and qualitative evaluation of the gas-treated rats (neurotoxic effect, behaviour) during the sensitization protocol; details: conclusion from locomotor and righting activity of the gas-exposed rats
# Protocol: as §1, §2, §3
substance,measurement,setting,value
argon [argon at 75 vol %],effect on the locomotor hyperactivity inherent to the development of sensitization to D-amphetamine,[1],total inhibitory effect
same,effect on the righting activity corresponding to the development of the sensitization to D-amphetamine,[2],inhibitory effect
same,neurotoxic effect,[3],without any neurotoxic effect being observed
